Eleven compounds from patent US20100267755A1, “PYRIMIDINE DERIVATIVES” (GLAXO GROUP LIMITED, priority 2001, published 2010) can be followed below.

As usually defined, the pIC50 is the negative decadic logarithm of the IC50, by convention in mol/L. The term inhibition denotes the drop in the measured response relative to a control, in per cent.

pIC50: −log10 of the molar value.

The first test addresses T1, microsomal h-COX2 (Homo sapiens, UniProt P35354).
T1 construct: made in house; host or cells: baculovirus infected SF9 cells
T1 sequence (P35354 18-604): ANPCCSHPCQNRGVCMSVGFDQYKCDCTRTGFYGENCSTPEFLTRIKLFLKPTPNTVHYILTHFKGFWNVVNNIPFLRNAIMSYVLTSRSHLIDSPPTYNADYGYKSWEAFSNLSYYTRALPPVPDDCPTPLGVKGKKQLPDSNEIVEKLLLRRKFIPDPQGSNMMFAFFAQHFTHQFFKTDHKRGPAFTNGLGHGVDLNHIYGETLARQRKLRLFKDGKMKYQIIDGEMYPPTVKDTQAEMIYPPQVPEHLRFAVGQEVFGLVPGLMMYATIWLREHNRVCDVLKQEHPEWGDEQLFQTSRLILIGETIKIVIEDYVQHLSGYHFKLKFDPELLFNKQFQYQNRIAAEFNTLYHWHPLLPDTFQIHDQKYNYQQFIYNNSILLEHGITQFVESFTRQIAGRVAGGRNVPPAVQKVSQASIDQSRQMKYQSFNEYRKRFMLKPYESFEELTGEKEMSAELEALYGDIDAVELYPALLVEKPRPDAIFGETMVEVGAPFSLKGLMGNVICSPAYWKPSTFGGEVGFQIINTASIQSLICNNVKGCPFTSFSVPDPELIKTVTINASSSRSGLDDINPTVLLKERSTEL
Nature of the test: Inhibitory activity against microsomal h-COX2 (PGE2 by EIA). In kind it is biochemical. The following applies: microsomal preparation from baculovirus infected SF9 cells; 0.1 μM arachidonic acid; read-out: COX-2 IC50. As for the experimental part:
Inhibitory activity against microsomal h-COX2 was assessed against a microsomal preparation from baculovirus infected SF9 cells. An aliquot of microsomal preparation was thawed slowly on ice and a 1/40,000 dilution prepared from it into the assay buffer (sterile water, degassed with argon containing 100 mM HEPES (pH 7.4), 10 mM EDTA (pH7.4), 1 mM phenol, 1 mM reduced glutathione, 20 mg/ml gelatin and 0.001 mM Hematin). Once diluted the enzyme solution was then sonicated for 5 seconds (Branson sonicator, setting 4, 1 cm tip) to ensure a homogeneous suspension. […] Plates were then mixed and incubated at room temperature for 1 hour. Following the incubation period, 40 μl of 0.5 μM arachidonic acid was added to each well to give a final concentration of 0.1 μM. Plates were then mixed and incubated for exactly 10 minutes (room temperature) prior to addition of 25 μl 1M HCl (hydrochloric acid) to each well to stop the reaction. 25 μl of 1M NaOH (sodium hydroxide) was then added to each well to neutralise the solution prior to determination of PGE2 levels by enzyme immunoassay (EIA).
`Cc1c(-c2ccc(S(C)(=O)=O)cc2)nc(NCCc2ccccn2)nc1C(F)(F)F` [Example 10]: the negative logarithm of the IC50 (pIC50) was 4.15.

Take `Cc1c(-c2ccc(S(C)(=O)=O)cc2)nc(NCc2ccccn2)nc1C(F)(F)F` [Example 9]: the pIC50 is less than 4.01.

With `Cc1c(-c2ccc(S(C)(=O)=O)cc2)nc(NCC2CCOCC2)nc1C(F)(F)F` [Example 7], the pIC50 is less than 4.00.

Consider `Cc1c(-c2ccc(S(C)(=O)=O)cc2)nc(NCc2ccccc2)nc1C(F)(F)F` [Example 1, N-benzyl-5-methyl-4-[4-(methylsulfonyl)phenyl]-6-(trifluoromethyl)pyrimidin-2-amine], for which the negative logarithm of the IC50 (pIC50) was 5.89.

As to `Cc1c(-c2ccc(S(C)(=O)=O)cc2)nc(NCc2ccccc2O)nc1C(F)(F)F` [Example 3], the pIC50 was 5.60.

On to `CCCCNc1nc(-c2ccc(S(C)(=O)=O)cc2)c(C)c(C(F)(F)F)n1` [Example 11], for which the negative logarithm of the IC50 (pIC50) was 5.20.

Consider `Cc1c(-c2ccc(S(C)(=O)=O)cc2)nc(NCC(C)C)nc1C(F)(F)F` [Example 2, N-isobutyl-5-methyl-4-[4-(methylsulfonyl)phenyl]-6-(trifluoromethyl)pyrimidin-2-amine], for which the negative logarithm of the IC50 (pIC50) was 5.18.

Consider `Cc1c(-c2ccc(S(C)(=O)=O)cc2)nc(NCc2cccs2)nc1C(F)(F)F` [Example 4], for which the negative logarithm of the IC50 (pIC50) is 6.25.

Regarding `Cc1ccc(CNc2nc(-c3ccc(S(C)(=O)=O)cc3)c(C)c(C(F)(F)F)n2)cc1` [Example 5], the pIC50 was 4.82.

As for `CCCNc1nc(-c2ccc(S(C)(=O)=O)cc2)c(C)c(C(F)(F)F)n1` [Example 8], the pIC50 was 4.57.

In the case of `Cc1c(-c2ccc(S(C)(=O)=O)cc2)nc(NC2CCCCC2)nc1C(F)(F)F` [Example 6], the negative logarithm of the IC50 (pIC50) is 5.64.

The test is the same for the next values; noted with them: read-out: COX-2% inhibition.
Regarding `Cc1c(-c2ccc(S(C)(=O)=O)cc2)nc(NCc2ccccc2)nc1C(F)(F)F` [Example 1, N-benzyl-5-methyl-4-[4-(methylsulfonyl)phenyl]-6-(trifluoromethyl)pyrimidin-2-amine], the inhibition at 10 µM was determined as 61%.

On to `CCCCNc1nc(-c2ccc(S(C)(=O)=O)cc2)c(C)c(C(F)(F)F)n1` [Example 11], for which the inhibition at 10 µM turned out to be 43%.
